Data reported in patent publication US20130059850A1, “AZA-INDOLE DERIVATIVES USEFUL AS MODULATORS OF FAAH” (MERCK SHARP & DOHME CORP., priority 2010, published 2013).

Tests used:
[1] = molecular target: T1, human FAAH (Fatty Acid Amide Hydrolase) (Homo sapiens, UniProt O00519); experiment: FAAH enzyme assay on CHO cell lysate expressing human FAAH (human LY), AAMCA fluorescent substrate; format: biochemical; details: human FAAH_CHO cell lysate
T1 construct: The full length FAAH was subcloned into the mammalian expression vector, pcDEF.neo, using XbaI and EcoRI restriction sites; expressed in transfected cells
T1 sequence (O00519 1-579): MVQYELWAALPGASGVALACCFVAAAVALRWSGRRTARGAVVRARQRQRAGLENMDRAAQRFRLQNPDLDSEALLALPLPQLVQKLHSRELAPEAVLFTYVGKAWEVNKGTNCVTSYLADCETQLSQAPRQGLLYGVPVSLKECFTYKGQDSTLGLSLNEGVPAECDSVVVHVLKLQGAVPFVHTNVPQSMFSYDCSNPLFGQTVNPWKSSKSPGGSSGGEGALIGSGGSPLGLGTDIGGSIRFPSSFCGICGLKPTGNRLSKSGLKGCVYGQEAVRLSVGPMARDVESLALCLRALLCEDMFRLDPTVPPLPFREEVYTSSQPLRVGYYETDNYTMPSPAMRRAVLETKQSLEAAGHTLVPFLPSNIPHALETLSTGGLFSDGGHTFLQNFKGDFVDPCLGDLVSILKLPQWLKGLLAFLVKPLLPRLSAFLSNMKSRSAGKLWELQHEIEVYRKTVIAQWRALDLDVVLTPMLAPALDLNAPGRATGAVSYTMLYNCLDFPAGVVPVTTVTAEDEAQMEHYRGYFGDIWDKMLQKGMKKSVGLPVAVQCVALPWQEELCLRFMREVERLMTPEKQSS
From the text: (§1) To assist in assay development stable cell lines for human, murine and rat full length FAAH were developed. Human FAAH cDNA (Accession No: NM_001441.1) was purchased from Origene (Rockville, Md.). The full length FAAH was subcloned into the mammalian expression vector, pcDEF.neo, using XbaI and EcoRI restriction sites and used for stable cell line generation.
CHO cells expressing FAAH were used to prepare either crude cell lysate or microsome fractions. To harvest cells, tissue culture media was decanted, the monolayer washed three times with Ca^++Mg^++ free PBS and cells recovered after […] in enzyme free dissociation media (Millipore Corp, Billerica, Mass.). Cells were collected by centrifuging at 2000 rpm for 15 min. and the cell pellet re-suspended with 50 mM HEPES (pH 7.4) containing 1 mM EDTA and the protease inhibitors aprotinin (1 mg/ml) and leupeptin (100 μM). The suspension was sonicated at 4° C. and the cell lysate recovered after centrifuging at 12,000×g (14,600 rpm, SS34 rotor) for 20 min at 4° C. to form a crude pellet of cell debris, nuclei, peroxisomes, lysosomes, and mitochondria; the supernatant or cell lysate was used for FAAH enzyme assay. In some cases, microsomes fractions enriched in FAAH were prepared by centrifuging the cell lysate further at 27,000 rpm (100,000×g) in SW28 rotor for 50 minutes at 4° C. The pellet containing FAAH-enriched microsomes was re-suspend in 50 mM HEPES, (pH 7.4) 1 mM EDTA, and any remaining DNA sheared by passage of material through a 23 gauge needle and aliquots of enzyme were store at −80° C. prior to use.
(§2) (American Radiolabeled Chemicals; 1 mCi/ml) with FAAH (Life Sciences (1995), 56, 1999-2005 and Journal of Pharmacology and Experimented Therapeutics (1997), 283, 729-734), Analytical. Biochemistry (2003), 318, 270-5. In addition, routine assays were performed monitoring hydrolysis of arachidonyl-7-amino-4-methylcoumarin amide (AAMCA) by following increase in fluorescence upon release of 7-amino 4-methyl coumarin (λEX=355 nm, μEM=460 nm). Analytical. Biochemistry (2005). 343, 143-51
(§3) Assays are performed on either cell lysate or microsome fractions prepared as described or in whole cell format employing either the fluorescent substrate AAMCA (Cayman chemical, Ann Arbor, Mich.,) or ^3H-anandamide ([ETHANOLAMINE-1-3H] American Radiolabeled Chemicals; 1 mCi/ml). The cell lysate or microsome assay is performed in black PerkinElmer OptiPlates-384F by adding FAAH_CHO (whole cell (human whole cell or human WC), cell lysate (human cell lysate or human LY) or microsome) in assay buffer (50 mM Phosphate, pH 8.0, 1 mM EDTA, 200 mM KCl, 0.2% glycerol, 0.1% fatty acid free BSA) to each well, followed by either DMSO or compound and allowed to incubate at 22-25° C. for fifteen minutes. AAMCA substrate was used to achieve a final concentration of 1 μM and reaction allowed to proceed at room temperature for 1-3 hours. Fluorescent release as a measure of FAAH activity was monitored by reading the plate in a Envision plate Reader (Ex: 360/40 nM; Em: 460/40 nM). Whole cell assay is conducted with cells harvested after rinsing tissue culture flasks three times with Ca^++Mg^++ free PBS, incubating for […] in Enzyme free dissociation media and centrifuging for 5 minutes at 1,000 rpm in table top centrifuge. Cells are resuspended in assay buffer at desired cell number in (4×10^4 cells/assay in 96-well format; 1×10^4 cells/assay in 384-well format) and assayed as described.

[2] = molecular target: T1, human FAAH (Fatty Acid Amide Hydrolase); experiment: FAAH whole cell assay on CHO cells expressing human FAAH (human WC), AAMCA fluorescent substrate; format: cell-based; details: human FAAH_CHO whole cell
From the text: as §1
Murine (accession number NM_010173) and Rat FAAH (accession number NM_024132) was amplified by reverse transcriptase polymerase chain reaction (RT-PCR) from brain cDNA (BD Biosciences, San Jose, Calif.) using primers 1 and 2 or primers 1 and 3 respectively (see Table). The resulting PCR product was ligated into pCR4 TOPO and DNA sequence confirmed. The full length murine FAAH was subcloned into the mammalian expression vector, pcDEFneo using either EcoRI (murine) or KpnI and EcoRI (rat) restriction sites. Chinese hamster ovary cells (CHO) were transfected following manufacturers protocol (AMAXA). Forty eight hours post transfection, cells were trypsinized and transferred to 96 well plates in Iscove's DMEM media supplemented with 2 mM Glutamine, 10% fetal calf serum, 1 mg/ml geneticin and HT Supplement (0.1 mM sodium hypoxanthine, 0.016 mM thymidine) in order to isolate single clones. Following selection in geneticin, individual clones were selected and FAAH activity was assessed using a whole cell fluorescent anandamide assay, modified from Ramarao et al (2005). Following removal of tissue culture media cells were dislodged following addition of Cellstripper (Mediatech, Inc. Manassas, Va.) and transferred to 96 well black clear bottom assay plate, centrifuged at 1,000 rpm for 3 mins and media removed and replaced with assay buffer (50 mM Tris pH8.0, 1 mM EDTA, 0.1% fatty acid free BSA). The reaction was initiated by addition of fluorescent substrate, AMC Arachidonoyl Amide (Cayman Chemical, Ann Arbor, Mich.) to 1 μM and reaction allowed to proceed for 2 hours at room temperature. Release of fluorescence was monitored in a CytoFluor Multiplate Reader. Cells expressing the highest amount of FAAH activity were selected for study with FAAH inhibitors.
as §2
as §3, with “Cells are resuspended in assay buffer at desired cell number in (4×10^4 cells/assay in 96-well format; 1×10^4 cells/assay in 384-well format) and assayed as described.” left out

| IC50 [1] [nM] | IC50 [2] [nM] | Structure (SMILES) |
| --- | --- | --- |
| 7.84 | 15.1 | O=C1NCc2cc(-c3[nH]c4ncccc4c3Sc3ccc(Cl)cc3)ccc21 [Example A32] |
| 260 | 1140 | Clc1ccc(Sc2c(CNC3CCOCC3)[nH]c3ncccc23)cc1 [Example J7] |
| 5.56 | 124 | Nc1ccc(-c2[nH]c3ncccc3c2Sc2ccc(Cl)cc2)cc1 [Example A27] |
| 317 | 1390 | NC(=O)CCn1cccc2c(Sc3ccc(Cl)cc3)c(-c3ccc4c(c3)OCO4)nc1-2 [Example E21] |
| 3.06 | 8.04 | OCC1CC=C(c2[nH]c3ncccc3c2Sc2ccc(Cl)cc2)CC1 (stereo not shown) [Example B50, (4-{3-[(4-chlorophenyl)sulfanyl]-1H-pyrrolo[2,3-b]pyridin-2-yl}cyclohex-3-en-1-yl)methanol] |
| 117 | 370 | CC(C)(C)NS(=O)(=O)c1ccc(-c2[nH]c3ncccc3c2Sc2ccc(Cl)cc2)cc1 [Example A22] |
| 21.7 | 119 | N#CC1CC=C(c2[nH]c3ncccc3c2Sc2ccc(Cl)cc2)CC1 (stereo not shown) [Example B16] |
| 2030 | 8490 | Cn1cccc2c(Sc3ccc(Cl)cn3)c([C@H]3CC[C@H](O)CC3)nc1-2 [Example E16] |
| 660 | 1990 | O=C(NCC(O)C1CCCCC1)c1[nH]c2ncccc2c1Sc1ccc(Cl)cc1 (stereo not shown) [Example C10] |
| 18.5 | 70.6 | Cn1cccc2c(Sc3ccc(Cl)cc3)c(-c3ccc(C(O)C(F)(F)F)cc3)nc1-2 (stereo not shown) [Example E10] |
| 6.42 | 21.7 | Clc1ccc(Sc2c(-c3ccc(C4CC4)nc3)[nH]c3ncccc23)cc1 [Example B37] |
| 12.2 | 69.4 | N#Cc1ccccc1-c1[nH]c2ncccc2c1Sc1ccc(Cl)cc1 [Example F8] |
| 10.2 | 41.1 | CC(=O)c1ccc(-c2[nH]c3ncccc3c2Sc2ccc(Cl)cc2)s1 [Example B29] |
| 3.08 | 24 | CSc1ccc(-c2[nH]c3ncccc3c2Sc2ccc(Cl)cc2)cn1 [Example A16] |
| 2.98 | 35.6 | CSc1ccc(-c2[nH]c3ncccc3c2Sc2ccc(Cl)cn2)cc1 [Example A14] |
| 16.9 | 132 | OCc1ccc(-c2[nH]c3ncccc3c2Sc2ccc(Cl)cc2)cc1 [Example A29] |

| IC50 [1] [nM] | IC50 [2] [nM] | Structure (SMILES) |
| --- | --- | --- |
| 11.6 | 27.1 | CC(O)c1ccc(-c2[nH]c3ncccc3c2Sc2ccc(Cl)cc2)cc1 (stereo not shown) [Example B12] |
| 818 | 8410 | COc1ccc(C(O)c2[nH]c3ncccc3c2Sc2ccc(Cl)cc2)cc1 (stereo not shown) [Example J10] |
| 12.4 | 72.7 | COc1cc(-c2nc3n(C)cccc-3c2Sc2ccc(Cl)cc2)cnc1OC [Example E8] |
| 12.3 | 17.1 | O=C1NCc2cc(-c3[nH]c4ncccc4c3Sc3ccc(Cl)cn3)ccc21 [Example A34] |
| 15.2 | 107 | O=C(NCc1ccc(O)c(O)c1)c1[nH]c2ncccc2c1Sc1ccc(Cl)cc1 [Example C11] |
| 23.8 | 66.3 | O=C(NCCO)C1CC=C(c2[nH]c3ncccc3c2Sc2ccc(Cl)cc2)CC1 (stereo not shown) [Example B49] |
| 4.22 | 12.4 | Cn1cccc2c(Sc3ccc(Cl)cc3)c(-c3ccc4[nH]ncc4c3)nc1-2 [Example E4] |
| 80.4 | 433 | OC1CCN(Cc2[nH]c3ncccc3c2Sc2ccc(Cl)cc2)CC1 [Example J8] |
| 4.39 | 21.9 | NS(=O)(=O)c1ccc(-c2[nH]c3ncccc3c2Sc2ccc(Cl)cc2)cc1 [Example A7, 4-{3-[(4-chlorophenyl)sulfanyl]-1H-pyrrolo[2,3-b]pyridin-2-yl}benzenesulfonamide] |
| 196 | 1740 | COCc1ccccc1-c1[nH]c2ncccc2c1Sc1ccc(Cl)cc1 [Example A19] |
| 9.79 | 18.1 | O=C(Nc1ccc2[nH]ncc2c1)c1[nH]c2ncccc2c1Sc1ccc(Cl)cc1 [Example C16] |
| 23.2 | 124 | COc1ccc(-c2[nH]c3ncccc3c2Sc2ccc(Cl)cc2)c(OC)n1 [Example B18] |
| 116 | 925 | Cn1cccc2c(Sc3ccc(Cl)cn3)c(-c3ccc(C(O)C(F)(F)F)cc3)nc1-2 (stereo not shown) [Example E14] |
| 339 | 1110 | Clc1ccc(Sc2c(-c3ccccn3)[nH]c3ncccc23)cc1 [Example F9] |
| 15.4 | 82.5 | Cn1cccc2c(Sc3ccc(Cl)cn3)c(-c3ccc4[nH]ncc4c3)nc1-2 [Example E9] |
| 1.79 | 9.53 | OC1CC=C(c2[nH]c3ncccc3c2Sc2ccc(Cl)cc2)CC1 (stereo not shown) [Example B36] |
